The source of these data is PMC11167047 (Cell Death Discovery, 2024).

Each structure is given as a SMILES string.

What all share (assay): kinome screen (33PanQinase)
Assay type in all cases: biochemical

Assay [1] deals with T1, BMX (Homo sapiens, UniProt P51813).
T1 construct: purchased Reaction Biology Europe GmbH (formerly ProQinase)
T1 sequence (P51813 1-675): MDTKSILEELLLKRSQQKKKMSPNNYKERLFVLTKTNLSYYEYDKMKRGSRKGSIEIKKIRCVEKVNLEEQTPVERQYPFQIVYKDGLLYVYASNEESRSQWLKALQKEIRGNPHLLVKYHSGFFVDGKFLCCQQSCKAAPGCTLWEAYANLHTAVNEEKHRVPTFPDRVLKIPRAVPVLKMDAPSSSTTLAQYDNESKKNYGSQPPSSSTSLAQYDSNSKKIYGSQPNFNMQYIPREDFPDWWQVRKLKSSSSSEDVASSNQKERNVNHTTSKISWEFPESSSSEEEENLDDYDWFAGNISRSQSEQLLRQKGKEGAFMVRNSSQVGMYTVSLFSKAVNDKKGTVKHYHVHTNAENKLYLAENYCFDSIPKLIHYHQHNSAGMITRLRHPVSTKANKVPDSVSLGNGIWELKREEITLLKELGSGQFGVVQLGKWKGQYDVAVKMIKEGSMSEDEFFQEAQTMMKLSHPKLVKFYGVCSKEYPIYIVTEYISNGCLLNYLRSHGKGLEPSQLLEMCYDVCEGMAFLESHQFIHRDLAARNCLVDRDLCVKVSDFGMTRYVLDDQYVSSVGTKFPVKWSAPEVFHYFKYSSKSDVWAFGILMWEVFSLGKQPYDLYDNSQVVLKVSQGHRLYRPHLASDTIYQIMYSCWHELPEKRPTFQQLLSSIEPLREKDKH
On the procedure: (§1) The Kinome Screening was performed by Reaction Biology Europe GmbH (http://reactionbiology.com; Freiburg i. Br., Germany).

In assay [2] the target is T2, CAMKK2 (Homo sapiens, UniProt Q96RR4).
T2 construct: purchased Reaction Biology Europe GmbH (formerly ProQinase)
Here is the method: as §1

The target in assay [3] is T3, DAPK3 (Homo sapiens, UniProt O43293).
T3 construct: purchased Reaction Biology Europe GmbH (formerly ProQinase)
On the procedure:
as §1

The target of assay [4] is T4, NLK (Homo sapiens, UniProt Q9UBE8).
T4 construct: purchased Reaction Biology Europe GmbH (formerly ProQinase)
T4 sequence (Q9UBE8 1-527): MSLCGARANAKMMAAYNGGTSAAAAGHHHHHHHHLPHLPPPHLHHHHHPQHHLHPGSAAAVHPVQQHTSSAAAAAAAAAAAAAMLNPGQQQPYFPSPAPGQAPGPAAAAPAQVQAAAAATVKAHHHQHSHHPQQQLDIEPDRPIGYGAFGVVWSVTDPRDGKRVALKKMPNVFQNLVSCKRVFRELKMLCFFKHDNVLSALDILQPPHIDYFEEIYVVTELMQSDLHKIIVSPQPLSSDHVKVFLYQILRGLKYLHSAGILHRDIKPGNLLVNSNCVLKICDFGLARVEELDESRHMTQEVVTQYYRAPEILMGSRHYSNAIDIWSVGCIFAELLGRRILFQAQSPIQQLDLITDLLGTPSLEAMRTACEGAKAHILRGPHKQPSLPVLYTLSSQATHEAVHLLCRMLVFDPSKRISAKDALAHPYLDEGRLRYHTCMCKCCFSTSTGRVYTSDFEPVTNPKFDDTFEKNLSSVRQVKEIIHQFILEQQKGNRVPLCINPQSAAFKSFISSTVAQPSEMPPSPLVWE
Here is the method:
as §1

Assay [5] deals with T5, PKMYT1 (Homo sapiens, UniProt Q99640).
T5 construct: purchased Reaction Biology Europe GmbH (formerly ProQinase)
T5 sequence (Q99640 1-499): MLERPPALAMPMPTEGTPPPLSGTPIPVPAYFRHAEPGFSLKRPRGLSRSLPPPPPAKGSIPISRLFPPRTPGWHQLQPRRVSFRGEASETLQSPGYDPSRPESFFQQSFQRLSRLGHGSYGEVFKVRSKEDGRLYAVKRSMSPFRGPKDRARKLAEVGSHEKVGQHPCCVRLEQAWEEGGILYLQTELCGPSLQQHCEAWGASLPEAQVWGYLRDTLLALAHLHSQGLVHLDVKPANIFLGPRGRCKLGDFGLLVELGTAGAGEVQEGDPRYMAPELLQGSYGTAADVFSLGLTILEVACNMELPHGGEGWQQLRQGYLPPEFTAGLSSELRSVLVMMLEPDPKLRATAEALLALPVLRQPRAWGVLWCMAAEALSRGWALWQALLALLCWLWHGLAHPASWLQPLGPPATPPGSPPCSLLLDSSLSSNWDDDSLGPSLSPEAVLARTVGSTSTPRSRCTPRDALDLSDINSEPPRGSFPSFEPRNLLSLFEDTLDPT
On the procedure: as §1

T3 sequence (O43293 whole entry): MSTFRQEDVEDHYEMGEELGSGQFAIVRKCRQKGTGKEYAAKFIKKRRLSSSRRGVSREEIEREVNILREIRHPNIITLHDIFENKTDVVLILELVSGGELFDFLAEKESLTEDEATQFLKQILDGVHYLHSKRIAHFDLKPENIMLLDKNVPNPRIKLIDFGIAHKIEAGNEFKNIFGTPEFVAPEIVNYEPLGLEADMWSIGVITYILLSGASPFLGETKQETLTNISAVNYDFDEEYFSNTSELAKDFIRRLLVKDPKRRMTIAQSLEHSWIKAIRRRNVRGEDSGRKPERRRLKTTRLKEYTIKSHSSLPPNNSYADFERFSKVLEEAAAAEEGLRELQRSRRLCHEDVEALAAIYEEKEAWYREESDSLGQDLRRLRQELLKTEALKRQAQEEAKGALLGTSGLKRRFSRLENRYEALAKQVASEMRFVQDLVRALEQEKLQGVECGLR
T2 sequence (Q96RR4 whole entry): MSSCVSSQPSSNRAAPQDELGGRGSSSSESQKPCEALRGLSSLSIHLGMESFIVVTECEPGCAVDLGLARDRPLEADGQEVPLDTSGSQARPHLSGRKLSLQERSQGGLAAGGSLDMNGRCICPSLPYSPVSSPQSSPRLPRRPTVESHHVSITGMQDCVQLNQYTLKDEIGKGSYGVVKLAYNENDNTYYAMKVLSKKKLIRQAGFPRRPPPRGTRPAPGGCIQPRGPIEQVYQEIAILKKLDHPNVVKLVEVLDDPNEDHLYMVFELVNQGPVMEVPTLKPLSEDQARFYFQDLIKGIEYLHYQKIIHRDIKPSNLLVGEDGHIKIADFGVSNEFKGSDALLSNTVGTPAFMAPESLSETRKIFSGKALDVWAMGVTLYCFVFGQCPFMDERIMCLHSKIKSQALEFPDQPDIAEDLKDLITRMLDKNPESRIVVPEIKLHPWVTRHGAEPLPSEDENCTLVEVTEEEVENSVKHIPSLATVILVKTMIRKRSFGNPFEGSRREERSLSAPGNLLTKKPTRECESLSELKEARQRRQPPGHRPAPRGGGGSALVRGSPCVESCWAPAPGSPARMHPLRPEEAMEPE

Regarding `c1ccc(CNc2cc(-c3c[nH]c4ncccc34)ccn2)cc1` [meriolin 36], the residual kinase activity is reported as 109 % of control in assay [1] (0.3 µM); 49 % of control in assay [1] (3 µM); 9 % of control in assay [2] (0.3 µM); 1 % of control in assay [2] (3 µM); 80 % of control in assay [3] (0.3 µM); 25 % of control in assay [3] (3 µM). The residual kinase activity in assay [4] (0.3 µM) was 78 % of control; in assay [4] (3 µM), 29 % of control; in assay [5] (0.3 µM), 39 % of control; in assay [5] (3 µM), 13 % of control.
For the molecule `COc1ccnc2[nH]cc(-c3cc(N)nc(N)c3)c12` [meriolin 16], the residual kinase activity in assay [1] (0.03 µM) is 118 % of control; in assay [1] (0.3 µM), 103 % of control; in assay [2] (0.03 µM) it was 92 % of control; in assay [2] (0.3 µM) it was 55 % of control; in assay [3] (0.03 µM), 98 % of control; in assay [3] (0.3 µM), 51 % of control. Besides, the residual kinase activity is on record as 96 % of control in assay [4] (0.03 µM), 81 % of control in assay [4] (0.3 µM), 32 % of control in assay [5] (0.03 µM) and 23 % of control in assay [5] (0.3 µM).
